Starred links: 1 amine or outer side, 2 acyl side, 3 side chain; linkers in the order of their positions; H or OH if unused. Non-standard residues stand in square brackets, D forms with d. Residues, ends and D or L forms follow the SMILES beside them. Groups on a side chain read outwards from the residue. *: point of attachment. γGlu = O=C(O)[C@H](CCC(=O)[*:2])N[*:1]; Palmitoyl = CCCCCCCCCCCCCCCC(=O)*; NMeF = CN[C@@H](Cc1ccccc1)C(=O)O

Experiment [1] deals with T1, NPFF-R2 (Homo sapiens, UniProt Q9Y5X5).
T1 construct: host or cells: CHO-K1 (AequoScreen, co-expressing aequorin)
Put plainly: Intracellular Ca^2+ mobilization, AequoScreen CHO-K1 cells with NPFF-R2. The conditions noted are these: CHO-K1 NPFF-R2 aequorin cells; peptides 10^−12 to 10^−5 M; mean ± SEM, three times in duplicates; read-out: EC50 intracellular Ca^2+ release, NPFF-R2. Type of experiment: cell-based. As for the experimental part:
The intracellular Ca^2+ level was measured using the AequoScreen stable CHO-K1 cell line containing NPFF-R2 purchased from Perkin Elmer according to the manufacturer’s protocol. Cells at 80–90% confluence cultured in media without selective antibiotics were detached (PBS pH 7.4 + 0.5 mM EDTA) and centrifuged. Cells resuspended in phenol red-free DMEM with 0.1% protease-free BSA and 5 µM coelenterazine h (Thermo Fisher Scientific Inc. Brand) were seeded at 50,000 cells/well in 96-well plates and incubated in the dark at RT with gentle agitation for 4 h. Peptides were tested at concentrations from 10^−12 to 10^−5 M. Luminescent light emission was recorded using a FlexStation 3 plate reader.
Ca^2+ release assay data are shown as the percentage of maximal response, and the results were analyzed by nonlinear regression as log agonist versus response using GraphPad software. Data are representative of at least three experiments, each performed in duplicate.

The target of experiment [2] is T2, GPR10 (Homo sapiens, UniProt P49683).
T2 construct: host or cells: CHO-K1
T2 sequence (P49683 1-370): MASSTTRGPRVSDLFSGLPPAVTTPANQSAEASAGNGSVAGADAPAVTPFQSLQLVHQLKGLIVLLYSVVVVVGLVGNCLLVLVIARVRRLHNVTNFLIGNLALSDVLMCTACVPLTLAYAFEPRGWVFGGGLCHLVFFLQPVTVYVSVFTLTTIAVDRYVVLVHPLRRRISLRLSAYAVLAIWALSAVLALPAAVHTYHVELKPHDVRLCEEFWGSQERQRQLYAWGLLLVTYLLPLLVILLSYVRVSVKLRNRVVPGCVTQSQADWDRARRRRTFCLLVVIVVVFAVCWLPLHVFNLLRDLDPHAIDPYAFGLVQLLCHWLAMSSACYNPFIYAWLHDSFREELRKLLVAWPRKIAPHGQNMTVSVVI
Put plainly: Competitive binding, [^125I]-PrRP31, CHO-K1 cells expressing GPR10. The conditions noted are these: competition with [^125I]-PrRP31, CHO-K1 cells expressing human GPR10; mean ± SEM, 2–5 independent experiments in duplicates; Cheng-Prusoff; read-out: Ki GPR10 [^125I]-PrRP31.

The target of experiment [3] is T1, NPFF-R2. Put plainly: Cell signaling by immunoblotting, CHO-K1 cells expressing NPFF-R2. Type of experiment: cell-based. The conditions noted are these: dose-response 10^−11 to 10^−5 M, 5 min, 37 °C, immunoblot, at least two experiments. As for the experimental part: Cells were seeded in 24-well plates at 30,000 cells/well in assay medium (growth medium without selective antibiotics) and were grown for 2 days. The day before the experiment, the medium was changed to serum-free medium. […] Cells were lysed with Laemmli sample buffer (62.5 mM Tris-HCl at pH 6.8, 2% SDS, 10% glycerol, 0.01% bromophenol blue, 5% β-mercaptoethanol, 50 mM NaF, and 1 mM Na3VO4). Samples were stored at −20 °C. Electrophoresis and immunoblotting were performed as described previously. For detection of signaling pathways, primary monoclonal antibodies (see Table 5 for the antibodies used) purchased from Cell Signaling Technology (Danvers, MA, USA) were used.
(§1) Experiments using immunoblotting were analyzed using one-way ANOVA followed by Dunnett’s post hoc test; p < 0.05 was considered statistically significant. Dose-response curves were obtained from nonlinear regression.
(In western blotting, separated proteins are transferred to a membrane and probed.)

For the next experiment, the target named is T3, KOR (Homo sapiens, UniProt P41145).
T3 construct: host or cells: CHO-K1
Put plainly: cell-based.

For a further experiment, the target named is T4, DOR (Homo sapiens, UniProt P41143).
T4 construct: host or cells: U2OS
Put plainly: Beta-lactamase reporter gene assay (FRET), DOR. Type of experiment: cell-based. The settings on record: β-lactamase assay, agonist mode, U2OS cells; mean ± SEM, 2–3 independent experiments in duplicates. (Reporter assays use an easily measured gene product as a stand-in for the process of interest.)

The target in another experiment is T5, Y1 (Homo sapiens, UniProt P25929).
T5 construct: host or cells: U2OS
T5 sequence (P25929 1-384): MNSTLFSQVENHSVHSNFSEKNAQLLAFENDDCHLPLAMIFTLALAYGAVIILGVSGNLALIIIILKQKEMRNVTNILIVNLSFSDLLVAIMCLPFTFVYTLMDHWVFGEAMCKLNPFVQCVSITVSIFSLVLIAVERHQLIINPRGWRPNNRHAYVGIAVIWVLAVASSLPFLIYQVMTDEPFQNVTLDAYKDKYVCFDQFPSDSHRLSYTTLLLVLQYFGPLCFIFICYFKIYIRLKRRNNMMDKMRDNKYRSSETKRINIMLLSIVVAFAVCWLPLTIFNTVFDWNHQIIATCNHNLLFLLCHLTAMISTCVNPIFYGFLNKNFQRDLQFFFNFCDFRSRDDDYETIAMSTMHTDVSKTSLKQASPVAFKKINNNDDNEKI
Put plainly: Competitive and saturation binding, [^125I]-PYY, U2OS cells with Y1. As for the experimental part: (§2) Competition binding experiments were performed according to [45]. […] Binding experiments using U2OS cells were optimized and performed in assay buffer (50 mM Tris-Cl pH 7.4, 118 mM NaCl, 5 mM MgCl2, 4.7 mM KCl, 0.1% BSA) for cells stably expressing GHSR and (25 mM HEPES, 120 mM NaCl, 5 mM MgCl2, 4.7 mM KCl, 1 mM CaCl2, 0.5% BSA, 2 g/L glucose) for cells containing receptors Y1, Y2 and Y5. […] Cells were incubated for 60 min at room temperature (RT).
(§3) Experiments were carried out in duplicate at least three times, and Ki was calculated using the Cheng-Prusoff equation.
(§4) Data were analyzed by GraphPad Software (San Diego, CA, USA) and are presented as the means ± SEM. The saturation and competitive binding experiments were analyzed according to [46] using the Cheng-Prusoff equation [33]. The competitive binding curves were plotted compared to the best fit for single-binding site models, and half maximal inhibitory concentration (IC50) values were obtained from nonlinear regression analysis. From saturation binding experiments, the dissociation constant (Kd) and number of binding sites/cell (Bmax) were calculated. Inhibition constants (Ki) were calculated from IC50 values, Kd and the concentration of radioligands.

Another experiment addresses T6, MOR (Homo sapiens, UniProt P35372).
T6 construct: host or cells: U2OS
Put plainly: Beta-lactamase reporter gene assay (FRET), MOR. Type of experiment: cell-based.

For experiment [4], the target named is T2, GPR10. Put plainly: Cell signaling by immunoblotting, CHO-K1 cells expressing GPR10. Type of experiment: cell-based. The settings on record: dose-response 10^−11 to 10^−5 M, 5 min, 37 °C, immunoblot, at least two experiments. As for the experimental part:
Activation of signaling pathways was studied in the CHO-K1 cell lines containing GPR10, NPFF-R2 and NPFF-R1. Cells were seeded in 24-well plates at 30,000 cells/well in assay medium (growth medium without selective antibiotics) and were grown for 2 days. The day before the experiment, the medium was changed to serum-free medium. […] Cells were lysed with Laemmli sample buffer (62.5 mM Tris-HCl at pH 6.8, 2% SDS, 10% glycerol, 0.01% bromophenol blue, 5% β-mercaptoethanol, 50 mM NaF, and 1 mM Na3VO4). Samples were stored at −20 °C. Electrophoresis and immunoblotting were performed as described previously. For detection of signaling pathways, primary monoclonal antibodies (see Table 5 for the antibodies used) purchased from Cell Signaling Technology (Danvers, MA, USA) were used.
as §1

In another experiment the target is T7, Y2 (Homo sapiens, UniProt P49146).
T7 construct: host or cells: U2OS
T7 sequence (P49146 1-381): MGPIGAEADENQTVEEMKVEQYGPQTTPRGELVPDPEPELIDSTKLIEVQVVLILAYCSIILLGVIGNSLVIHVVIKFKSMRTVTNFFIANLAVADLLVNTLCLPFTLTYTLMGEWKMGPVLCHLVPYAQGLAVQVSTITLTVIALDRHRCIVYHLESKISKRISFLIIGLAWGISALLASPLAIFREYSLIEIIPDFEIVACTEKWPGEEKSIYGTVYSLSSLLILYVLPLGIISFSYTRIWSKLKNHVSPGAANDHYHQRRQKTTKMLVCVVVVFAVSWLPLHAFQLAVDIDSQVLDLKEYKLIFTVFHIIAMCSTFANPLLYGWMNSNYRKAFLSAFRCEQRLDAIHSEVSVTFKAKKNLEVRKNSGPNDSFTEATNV
Put plainly: Competitive and saturation binding, [^125I]-PYY, U2OS cells with Y2. As for the experimental part:
as §2, §3, §4

The next experiment has as its target T8, ORL-1 (Homo sapiens, UniProt P41146).
T8 construct: host or cells: U2OS
Put plainly: Beta-lactamase reporter gene assay (FRET), ORL-1. Type of experiment: cell-based. The conditions noted are these: β-lactamase assay, agonist mode, U2OS cells; mean ± SEM, 2–3 independent experiments in duplicates.

T1 sequence (Q9Y5X5 whole entry): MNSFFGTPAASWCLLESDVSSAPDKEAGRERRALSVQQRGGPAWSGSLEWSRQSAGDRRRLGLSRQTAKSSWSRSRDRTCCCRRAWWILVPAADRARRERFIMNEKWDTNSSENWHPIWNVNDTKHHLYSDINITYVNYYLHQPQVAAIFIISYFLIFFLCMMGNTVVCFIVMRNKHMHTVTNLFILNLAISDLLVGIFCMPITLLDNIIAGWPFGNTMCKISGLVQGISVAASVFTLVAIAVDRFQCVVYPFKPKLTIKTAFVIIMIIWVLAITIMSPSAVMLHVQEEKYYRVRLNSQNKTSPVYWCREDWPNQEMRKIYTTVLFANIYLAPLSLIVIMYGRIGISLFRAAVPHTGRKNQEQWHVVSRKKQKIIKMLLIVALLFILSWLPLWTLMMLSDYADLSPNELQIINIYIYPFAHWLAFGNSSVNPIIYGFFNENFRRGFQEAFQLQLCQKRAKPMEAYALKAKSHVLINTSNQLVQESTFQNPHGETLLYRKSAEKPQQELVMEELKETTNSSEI
T6 sequence (P35372 whole entry): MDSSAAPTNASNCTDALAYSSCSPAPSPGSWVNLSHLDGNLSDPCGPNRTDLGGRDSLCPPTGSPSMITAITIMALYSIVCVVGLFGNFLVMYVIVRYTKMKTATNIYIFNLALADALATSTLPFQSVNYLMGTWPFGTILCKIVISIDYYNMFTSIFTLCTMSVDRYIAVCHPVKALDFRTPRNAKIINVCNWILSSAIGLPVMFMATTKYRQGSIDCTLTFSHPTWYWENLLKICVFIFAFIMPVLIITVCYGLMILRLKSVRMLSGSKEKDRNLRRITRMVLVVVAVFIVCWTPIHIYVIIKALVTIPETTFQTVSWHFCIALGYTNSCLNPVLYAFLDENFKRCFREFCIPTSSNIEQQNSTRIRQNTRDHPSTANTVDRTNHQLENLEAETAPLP
T8 sequence (P41146 whole entry): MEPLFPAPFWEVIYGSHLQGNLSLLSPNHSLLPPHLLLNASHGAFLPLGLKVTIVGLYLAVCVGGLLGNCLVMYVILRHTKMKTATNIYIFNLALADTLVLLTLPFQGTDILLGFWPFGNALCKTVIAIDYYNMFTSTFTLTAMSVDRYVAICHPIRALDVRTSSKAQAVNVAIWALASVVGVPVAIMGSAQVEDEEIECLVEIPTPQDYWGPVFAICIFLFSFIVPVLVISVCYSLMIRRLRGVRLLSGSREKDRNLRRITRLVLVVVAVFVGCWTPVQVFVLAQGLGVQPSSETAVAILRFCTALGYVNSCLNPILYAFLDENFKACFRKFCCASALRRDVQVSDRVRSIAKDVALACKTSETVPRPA
T4 sequence (P41143 whole entry): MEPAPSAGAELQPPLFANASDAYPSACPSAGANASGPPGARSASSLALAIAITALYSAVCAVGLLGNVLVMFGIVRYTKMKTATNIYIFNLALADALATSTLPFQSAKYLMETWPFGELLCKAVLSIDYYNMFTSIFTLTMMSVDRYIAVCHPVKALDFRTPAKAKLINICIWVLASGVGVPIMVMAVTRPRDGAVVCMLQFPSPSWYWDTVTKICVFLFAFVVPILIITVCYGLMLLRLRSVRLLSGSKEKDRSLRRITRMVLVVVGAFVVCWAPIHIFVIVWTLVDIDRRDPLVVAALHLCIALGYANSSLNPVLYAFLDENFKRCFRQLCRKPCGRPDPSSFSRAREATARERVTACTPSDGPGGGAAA
T3 sequence (P41145 whole entry): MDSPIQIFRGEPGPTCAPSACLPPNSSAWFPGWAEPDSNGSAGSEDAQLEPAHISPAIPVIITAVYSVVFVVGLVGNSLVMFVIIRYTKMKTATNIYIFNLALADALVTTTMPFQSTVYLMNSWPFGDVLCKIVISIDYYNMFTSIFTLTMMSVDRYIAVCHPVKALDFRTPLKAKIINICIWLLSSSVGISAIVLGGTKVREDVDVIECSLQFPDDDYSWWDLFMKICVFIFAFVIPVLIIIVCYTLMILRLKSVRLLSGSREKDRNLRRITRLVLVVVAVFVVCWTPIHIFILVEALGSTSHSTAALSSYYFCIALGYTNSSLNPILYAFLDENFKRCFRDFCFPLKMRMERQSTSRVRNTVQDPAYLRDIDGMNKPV

With `CC(C)C[C@H](NC(=O)[C@H](N)Cc1ccc(O)cc1)C(=O)N(C)[C@@H](Cc1ccccc1)C(=O)N[C@@H](CCC(N)=O)C(=O)N1CCC[C@H]1C(=O)N[C@@H](CCC(N)=O)C(=O)N[C@@H](CCCN=C(N)N)C(=O)N[C@@H](Cc1ccccc1)C(N)=O` [1DMe] (H-[dY]L[NMeF]QPQRF-NH2), the EC50 (commonly the midpoint of the concentration-response curve) on NPFF-R2 [1] was 0.00082 ± 0.00015 µM. Further, at GPR10 [2], the Ki (in general, the equilibrium dissociation constant of an inhibitor or competing ligand from its target) was above 10 µM.

In the case of `CC(C)C[C@H](NC(=O)[C@H](N)Cc1ccc(O)cc1)C(=O)N(C)[C@@H](Cc1ccccc1)C(=O)N[C@@H](CCC(N)=O)C(=O)N1CCC[C@H]1C(=O)N[C@@H](CCC(N)=O)C(=O)N[C@@H](CCCNC(=N)N)C(=O)N[C@@H](Cc1ccccc1)C(N)=O` [1DMe] (H-[dY]L[NMeF]QPQRF-NH2), the “EC50 of ERK activation” value on NPFF-R2 [3] is on record as “in nanomolar concentrations”.

For the molecule `CCCCCCCCCCCCCCCC(=O)N[C@@H](CCC(=O)NCCCC[C@H](NC(=O)[C@@H](NC(=O)[C@H](CCC(=O)O)NC(=O)[C@H](CCSC)NC(=O)[C@H](CO)NC(=O)[C@H](Cc1c[nH]cn1)NC(=O)[C@H](CCCNC(=N)N)NC(=O)[C@H](Cc1c[nH]cn1)NC(=O)[C@@H](NC(=O)[C@H](CCCNC(=N)N)NC(=O)[C@@H](N)CO)[C@@H](C)O)[C@@H](C)CC)C(=O)N[C@H](C(=O)N1CCC[C@H]1C(=O)N[C@@H](CC(=O)O)C(=O)N[C@H](C(=O)N[C@@H](CC(N)=O)C(=O)N1CCC[C@H]1C(=O)N[C@@H](C)C(=O)N[C@@H](Cc1c[nH]c2ccccc12)C(=O)N[C@@H](Cc1ccc(O)cc1)C(=O)N[C@@H](C)C(=O)N[C@@H](CO)C(=O)N[C@@H](CCCNC(=N)N)C(=O)NCC(=O)N[C@H](C(=O)N[C@@H](CCCNC(=N)N)C(=O)N1CCC[C@H]1C(=O)N[C@H](C(=O)NCC(=O)N[C@@H](CCCNC(=N)N)C(=O)N[C@@H](Cc1ccccc1)C(N)=O)C(C)C)[C@@H](C)CC)[C@@H](C)CC)[C@@H](C)O)C(=O)O` [Palm^11-PrRP31] (H-SRTHRHSMEIK([γGlu-Palmitoyl])TPDINPAWYASRGIRPVGRF-NH2), the EC50 is above 10 µM on KOR; above 10 µM on DOR; 0.0187 ± 0.00131 µM on NPFF-R2 [1]; above 10 µM at MOR; above 10 µM on ORL-1. Further, the Ki at Y1 and at Y2 was above 10 µM throughout. For the same molecule, the “EC50 of ERK activation” value at GPR10 [4] is reported as “in the nanomolar range”.
